Tests used:
[1] = Standard bidirectional permeability assay, Caco-2 cells; assay type: in vitro ADME; details: human; for Papp A→B at 10 µM: read-out: Caco-2 Papp,AB; for Papp B→A at 10 µM: read-out: Caco-2 PappBA
[2] = tested on: P-gp (MDR1); experiment: Standard bidirectional permeability assay, MDCK-MDR1 cells; assay type: in vitro ADME, canine; details: dog, MDCK-MDR1, pH 7.4, 10 µM in donor; for Papp A→B at 10 µM: read-out: MDCK-MDR1 Papp,AB
[3] = as above; assay type: in vitro ADME, canine; details: dog, MDCK-MDR1, pH 7.4, 10 µM in donor, read-out: MDCK-MDR1 PappBA
[4] = tested on: P-gp; experiment: Modified bidirectional permeability assay (24 h preincubation), Caco-2 cells; details: human, Caco-2, pH 7.4, with zosuquidar 5 µM
[5] = tested on: Caco-2 cells; experiment: as above; details: Caco-2, modified assay; 5 µM zosuquidar
[6] = as above; details: human, Caco-2, pH 7.4
[7] = Caco-2, pH 7.4, standard assay, 10 µM in donor
[8] = pH 7.4, Caco-2, standard conditions

| Papp A→B at 10 µM [1, 7] | Papp B→A at 10 µM [1, 7] | efflux ratio at 10 µM [2] | Papp A→B at 10 µM [2] | Papp B→A at 10 µM [3] | efflux ratio at 10 µM [1, 7] | Papp ([1]; pH 7.4, Caco-2, standard assay, read-out: intrinsic permeability) | Papp A→B [1, 8] | efflux ratio [1, 8] | Papp A→B at 1 µM [4] | inhibition of efflux by zosuquidar (P-gp substrate) [5] | Papp A→B at 1 µM [6] | efflux ratio at 1 µM [6] | Structure (SMILES) |
| --- | --- | --- | --- | --- | --- | --- | --- | --- | --- | --- | --- | --- | --- |
| 54.3 ×10⁻⁶ cm/s | 41 ×10⁻⁶ cm/s | 1 | 67.7 ×10⁻⁶ cm/s | 68.5 ×10⁻⁶ cm/s |  |  |  |  |  |  |  |  | COCCc1ccc(OCC(O)CNC(C)C)cc1 (stereo not drawn) [Metoprolol] |
| 79 ×10⁻⁶ cm/s | 69.5 ×10⁻⁶ cm/s | 0.8 | 38.4 ×10⁻⁶ cm/s | 32.6 ×10⁻⁶ cm/s | 1.1 |  |  |  |  |  |  |  | CC(C)NCC(O)COc1cccc2ccccc12 (stereo not drawn) [Propranolol] |
|  |  |  |  |  |  | 14 ×10⁻⁶ cm/s | 2.3 ×10⁻⁶ cm/s | 15.9 | 13 ×10⁻⁶ cm/s | inhibited completely | 2.6 ×10⁻⁶ cm/s | 13.8 | Cc1nnc2n1-c1sc(CCC(=O)N3CCOCC3)cc1C(c1ccccc1Cl)=NC2 [Apafant, apafant] |

Reference: paper PMC8400635, “A Bidirectional Permeability Assay for beyond Rule of 5 Compounds” (Pharmaceutics, 2021)
